In US20050142581A1, “Microrna as ligands and target molecules” (priority 2003, published 2005):
Oligonucleotides are written 5' to 3', each unit as a sugar letter and its base; * is a phosphorothioate linkage, no mark a phosphodiester; rarer units and linkages stand in square brackets, end groups in braces. Plain capitals give the bases only. e = 2'-O-(2-methoxyethyl) (MOE); [5mC] = 5-methylcytosine; d = 2'-deoxy (DNA)

System: human CD40 mRNA
Test: Inhibition of CD40 mRNA levels by oligonucleotides (real-time RT-PCR)
Assay type: cell-based
Parameters: concentration or dose not given beside the values
Details: 2'-MOE gapmers, 18 nucleotides, phosphorothioate throughout; averaged from three experiments
Procedure, shortened: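 Cells at ~80% confluency were transfected with oligonucleotide at 150 nM final using Lipofectin 3.75 μg/ml for 4 h and harvested 16 h after treatment. Poly(A)+ mRNA was taken for TaqMan real-time RT-PCR of CD40, and percent inhibition was derived from a standard curve of untreated control mRNA.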

Substance	% Inhibition (Inhibition of CD40 mRNA Levels by Chimeric Phosphorothioate Oligonucleotides) [%]
19222 (antisense eG*eT*eG*eG*dG*dT*dG*dG*dT*dT*dC*dT*dG*dG*eA*eT*eG*eG) [compound 19222]	57.79
19223 (antisense eG*e[5mC]*eA*eG*dT*dG*dG*dG*dT*dG*dG*dT*dT*dC*eT*eG*eG*eA) [compound 19223]	73.70
19224 (antisense e[5mC]*eA*e[5mC]*eA*dA*dA*dG*dA*dA*dC*dA*dG*dC*dA*e[5mC]*eT*eG*eA) [compound 19224]	40.25
19225 (antisense e[5mC]*eT*eG*eG*dC*dA*dC*dA*dA*dA*dG*dA*dA*dC*eA*eG*e[5mC]*eA) [compound 19225]	60.11
19226 (antisense eT*e[5mC]*e[5mC]*eT*dG*dG*dC*dT*dG*dG*dC*dA*dC*dA*eA*eA*eG*eA) [compound 19226]	10.18
19227 (antisense e[5mC]*eT*eG*eT*dC*dC*dT*dG*dG*dC*dT*dG*dG*dC*eA*e[5mC]*eA*eA) [compound 19227]	24.37
19228 (antisense e[5mC]*eT*e[5mC]*eA*dC*dC*dA*dG*dT*dT*dT*dC*dT*dG*eT*e[5mC]*e[5mC]*eT) [compound 19228]	22.30
19229 (antisense eT*e[5mC]*eA*e[5mC]*dT*dC*dA*dC*dC*dA*dG*dT*dT*dT*e[5mC]*eT*eG*eT) [compound 19229]	40.64
19230 (antisense eG*eT*eG*e[5mC]*dA*dG*dT*dC*dA*dC*dT*dC*dA*dC*e[5mC]*eA*eG*eT) [compound 19230]	82.04
19231 (antisense eA*e[5mC]*eT*e[5mC]*dT*dG*dT*dG*dC*dA*dG*dT*dC*dA*e[5mC]*eT*e[5mC]*eA) [compound 19231]	37.59
19232 (antisense e[5mC]*eA*eG*eT*dG*dA*dA*dC*dT*dC*dT*dG*dT*dG*e[5mC]*eA*eG*eT) [compound 19232]	40.26
19233 (antisense eA*eT*eT*e[5mC]*dC*dG*dT*dT*dT*dC*dA*dG*dT*dG*eA*eA*e[5mC]*eT) [compound 19233]	56.03
19234 (antisense eG*eA*eA*eG*dG*dC*dA*dT*dT*dC*dC*dG*dT*dT*eT*e[5mC]*eA*eG) [compound 19234]	32.21
19235 (antisense eT*eT*e[5mC]*eA*dC*dC*dG*dC*dA*dA*dG*dG*dA*dA*eG*eG*e[5mC]*eA) [compound 19235]	61.03
19236 (antisense e[5mC]*eT*e[5mC]*eT*dG*dT*dT*dC*dC*dA*dG*dG*dT*dG*eT*e[5mC]*eT*eA) [compound 19236]	62.19
19237 (antisense e[5mC]*eT*eG*eG*dT*dG*dG*dC*dA*dG*dT*dG*dT*dG*eT*e[5mC]*eT*e[5mC]) [compound 19237]	70.32
19238 (antisense eT*eG*eG*eG*dG*dT*dC*dG*dC*dA*dG*dT*dA*dT*eT*eT*eG*eT) [compound 19238]	0.00
19239 (antisense eG*eG*eT*eT*dG*dG*dG*dG*dT*dC*dG*dC*dA*dG*eT*eA*eT*eT) [compound 19239]	19.40
19240 (antisense e[5mC]*eT*eA*eG*dG*dT*dT*dG*dG*dG*dG*dT*dC*dG*e[5mC]*eA*eG*eT) [compound 19240]	36.32
19241 (antisense eG*eG*eT*eG*dC*dC*dC*dT*dT*dC*dT*dG*dC*dT*eG*eG*eA*e[5mC]) [compound 19241]	78.91
19242 (antisense e[5mC]*eT*eG*eA*dG*dG*dT*dG*dC*dC*dC*dT*dT*dC*eT*eG*e[5mC]*eT) [compound 19242]	69.84
19243 (antisense eG*eT*eG*eT*dC*dT*dG*dT*dT*dT*dC*dT*dG*dA*eG*eG*eT*eG) [compound 19243]	63.32
19244 (antisense eT*eG*eG*eT*dG*dT*dC*dT*dG*dT*dT*dT*dC*dT*eG*eA*eG*eG) [compound 19244]	42.83
19245 (antisense eA*e[5mC]*eA*eG*dG*dT*dG*dC*dA*dG*dA*dT*dG*dG*eT*eG*eT*e[5mC]) [compound 19245]	73.31

Substance	% Inhibition (Inhibition of CD40 mRNA Levels by Chimeric Phosphorothioate Oligonucleotides) [%]
19246 (antisense eT*eT*e[5mC]*eA*dC*dA*dG*dG*dT*dG*dC*dA*dG*dA*eT*eG*eG*eT) [compound 19246]	47.72
19247 (antisense eG*eT*eG*e[5mC]*dC*dA*dG*dC*dC*dT*dT*dC*dT*dT*e[5mC]*eA*e[5mC]*eA) [compound 19247]	61.32
19248 (antisense eT*eA*e[5mC]*eA*dG*dT*dG*dC*dC*dA*dG*dC*dC*dT*eT*e[5mC]*eT*eT) [compound 19248]	46.82
19249 (antisense eG*eG*eA*e[5mC]*dA*dC*dA*dG*dC*dT*dC*dT*dC*dA*e[5mC]*eA*eG*eG) [compound 19249]	0.00
19250 (antisense eT*eG*e[5mC]*eA*dG*dG*dA*dC*dA*dC*dA*dG*dC*dT*e[5mC]*eT*e[5mC]*eA) [compound 19250]	52.05
19251 (antisense eG*eA*eG*e[5mC]*dG*dG*dT*dG*dC*dA*dG*dG*dA*dC*eA*e[5mC]*eA*eG) [compound 19251]	50.15
19252 (antisense eA*eA*eG*e[5mC]*dC*dG*dG*dG*dC*dG*dA*dG*dC*dA*eT*eG*eA*eG) [compound 19252]	32.36
19253 (antisense eA*eA*eT*e[5mC]*dT*dG*dC*dT*dT*dG*dA*dC*dC*dC*e[5mC]*eA*eA*eA) [compound 19253]	0.00
19254 (antisense eG*eA*eA*eA*dC*dC*dC*dC*dT*dG*dT*dA*dG*dC*eA*eA*eT*e[5mC]) [compound 19254]	0.00
19255 (antisense eG*eT*eA*eT*dC*dA*dG*dA*dA*dA*dC*dC*dC*dC*eT*eG*eT*eA) [compound 19255]	36.13
19256 (antisense eG*e[5mC]*eT*e[5mC]*dG*dC*dA*dG*dA*dT*dG*dG*dT*dA*eT*e[5mC]*eA*eG) [compound 19256]	64.65
19257 (antisense eG*e[5mC]*eA*eG*dG*dG*dC*dT*dC*dG*dC*dA*dG*dA*eT*eG*eG*eT) [compound 19257]	74.95
19258 (antisense eT*eG*eG*eG*dC*dA*dG*dG*dG*dC*dT*dC*dG*dC*eA*eG*eA*eT) [compound 19258]	0.00
19259 (antisense eG*eA*e[5mC]*eT*dG*dG*dG*dC*dA*dG*dG*dG*dC*dT*e[5mC]*eG*e[5mC]*eA) [compound 19259]	82.00
19260 (antisense e[5mC]*eA*eT*eT*dG*dG*dA*dG*dA*dA*dG*dA*dA*dG*e[5mC]*e[5mC]*eG*eA) [compound 19260]	41.31
19261 (eG*eA*eT*eG*dA*dC*dA*dC*dA*dT*dT*dG*dG*dA*eG*eA*eA*eG; antisense) [compound 19261]	13.81
19262 (eG*e[5mC]*eA*eG*dA*dT*dG*dA*dC*dA*dC*dA*dT*dT*eG*eG*eA*eG; antisense) [compound 19262]	78.48
19263 (eT*e[5mC]*eG*eA*dA*dA*dG*dC*dA*dG*dA*dT*dG*dA*e[5mC]*eA*e[5mC]*eA; antisense) [compound 19263]	59.28
19264 (eG*eT*e[5mC]*e[5mC]*dA*dA*dG*dG*dG*dT*dG*dA*dC*dA*eT*eT*eT*eT; antisense) [compound 19264]	70.99
19265 (e[5mC]*eA*e[5mC]*eA*dG*dC*dT*dT*dG*dT*dC*dC*dA*dA*eG*eG*eG*eT; antisense) [compound 19265]	0.00
19266 (eT*eT*eG*eG*dT*dC*dT*dC*dA*dC*dA*dG*dC*dT*eT*eG*eT*e[5mC]; antisense) [compound 19266]	45.92
19267 (e[5mC]*eA*eG*eG*dT*dC*dT*dT*dT*dG*dG*dT*dC*dT*e[5mC]*eA*e[5mC]*eA; antisense) [compound 19267]	63.95
19268 (e[5mC]*eT*eG*eT*dT*dG*dC*dA*dC*dA*dA*dC*dC*dA*eG*eG*eT*e[5mC]; antisense) [compound 19268]	82.32
19269 (eG*eT*eT*eT*dG*dT*dG*dC*dC*dT*dG*dC*dC*dT*eG*eT*eT*eG; antisense) [compound 19269]	70.10
